Assay results as given in patent publication US7763728B2, “Tetrahydropyridothiophenes” (4SC AG, priority 2005, dated 2010).

Columns and labels:
[1] = test system: RKO colon adenocarcinoma cells (RKOp27) arrested by the expression of ectopic p27Kip1; assay: Alamar Blue cell viability assay on RKOp27 cells arrested by p27Kip1 expression induced by Ponasterone A; type: cell-based; conditions: Homo sapiens, 72 hours incubation, 10 μM Ponasterone A, read-out: IC50 RKO p27 induced (arrested)
Summary of the method: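 RKOp27 cells, 15000/well, held in DMEM with 10% FCS and with or without 10 μM Ponasterone A to induce p27Kip1 arrest. Compound dilutions added 24 h after seeding, then 72 h at 37 °C in quadruplicate. Alamar Blue fluorescence (544/590 nm) gave % viability relative to untreated cells.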

[2] = test system: RKO (RKOp27) human colon adenocarcinoma cells; assay: Alamar Blue cell viability assay, anti-proliferative/cytotoxic activity on proliferating (uninduced) RKOp27 cells; type: cell-based; conditions: 72 hours incubation, absence of the inducer Ponasterone A, read-out: IC50 RKO p27 uninduced (proliferating)
Summary of the method: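 RKOp27 subclones seeded at 5000 cells/well, compounds added after 24 h in DMEM/10% FCS, quadruplicates, 72 h at 37 °C, 5% CO2. Alamar Blue fluorescence (ex 544/em 590 nm) normalised to untreated cells (1% DMSO medium) as 100%; IC50 from concentration-effect curves.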

SMILES | IC50 [1] | IC50 [2]
COc1ccc(C)cc1CCC(=O)Nc1sc2c(c1C#N)CCN(C(=O)CCc1cc(C)ccn1)C2 [Example 34, N-{3-Cyano-6-[3-(4-methyl-pyridin-2-yl)-propanoyl]-4,5,6,7-tetrahydro-thieno[2,3-c]pyridin-2-yl}-3-(2-methoxy-5-methyl-phenyl)-propionamide] | > 100000 nM | 300 to 2000 nM
COc1ccc(C)cc1CCC(=O)Nc1sc2c(c1C#N)CCN(C(=O)CCc1ccncn1)C2 [Example 38, N-[3-Cyano-6-(3-pyrimidin-4-yl-propanoyl)-4,5,6,7-tetrahydro-thieno[2,3-c]pyridin-2-yl]-3-(2-methoxy-5-methyl-phenyl)-propionamide] | > 100000 nM | 300 to 2000 nM
COc1cccc(CCC(=O)Nc2sc3c(c2C#N)CCN(C(=O)Cc2cccnc2)C3)c1 [Example 39, N-[3-Cyano-6-(2-pyridin-3-yl-ethanoyl)-4,5,6,7-tetrahydro-thieno[2,3-c]pyridin-2-yl]-3-(3-methoxy-phenyl)-propionamide] | ≥ 40000 nM | ≤ 300 nM
COc1ccc(C)cc1CCC(=O)Nc1sc2c(c1C#N)CCN(C(=O)CCn1ccnc1)C2 [Example 40, N-[3-Cyano-6-(3-imidazol-1-yl-propanoyl)-4,5,6,7-tetrahydro-thieno[2,3-c]pyridin-2-yl]-3-(2-methoxy-5-methyl-phenyl)-propionamide] | ≥ 40000 nM | 300 to 2000 nM
COc1cccc(C(C)CC(=O)Nc2sc3c(c2C#N)CCN(C(=O)Cc2ccccn2)C3)c1 (centres unmarked) [Example 58, N-[3-Cyano-6-(2-pyridin-2-yl-ethanoyl)-4,5,6,7-tetrahydro-thieno[2,3-c]pyridin-2-yl]-3-(3-methoxy-phenyl)-butyramide] | > 100000 nM | 300 to 2000 nM
COc1ccc(C)cc1CCC(=O)Nc1sc2c(c1C#N)CCN(C(=O)Cc1ccccn1)C2 [Example 60, N-[3-Cyano-6-(2-pyridin-2-yl-ethanoyl)-4,5,6,7-tetrahydro-thieno[2,3-c]pyridin-2-yl]-3-(2-methoxy-5-methyl-phenyl)-propionamide] | > 100000 nM | ≤ 300 nM
COc1ccc(C)cc1CCC(=O)Nc1sc2c(c1C#N)CCN(C(=O)Cc1ccncc1)C2 [Example 74, N-[3-Cyano-6-(2-pyridin-4-yl-ethanoyl)-4,5,6,7-tetrahydro-thieno[2,3-c]pyridin-2-yl]-3-(2-methoxy-5-methyl-phenyl)-propionamide] | > 100000 nM | ≤ 300 nM
CCOc1ccccc1CCC(=O)Nc1sc2c(c1C#N)CCN(C(=O)Cn1ccnc1)C2 [Example 85, N-[3-Cyano-6-(2-imidazol-1-yl-ethanoyl)-4,5,6,7-tetrahydro-thieno[2,3-c]pyridin-2-yl]-3-(2-ethoxy-phenyl)-propionamide] | ≥ 40000 nM | ≤ 300 nM
COc1ccc(C)cc1CCC(=O)Nc1sc2c(c1C#N)CCN(C(=O)CCc1ccccn1)C2 [Example 96, N-[3-Cyano-6-(3-pyridin-2-yl-propanoyl)-4,5,6,7-tetrahydro-thieno[2,3-c]pyridin-2-yl]-3-(2-methoxy-5-methyl-phenyl)-propionamide] | > 100000 nM | 300 to 2000 nM
CCOc1ccccc1CCC(=O)Nc1sc2c(c1C#N)CCN(C(=O)CCn1ccnc1)C2 [Example 102, N-[3-Cyano-6-(3-Imidazol-1-yl-propanoyl)-4,5,6,7-tetrahydro-thieno[2,3-c]pyridin-2-yl]-3-(2-ethoxy-phenyl)-propionamide] | ≥ 10000 nM | ≤ 300 nM
COc1cccc(CCC(=O)Nc2sc3c(c2C#N)CCN(C(=O)CCc2nccn2C)C3)c1 [Example 115, N-{3-Cyano-6-[3-(1-methyl-1H-imidazol-2-yl)-propanoyl]-4,5,6,7-tetrahydro-thieno[2,3-c]pyridin-2-yl}-3-(3-methoxy-phenyl)-propionamide] | ≥ 40000 nM | 300 to 2000 nM

Now from value to compound, other results behind:

IC50 [1] | SMILES | IC50 [2]
> 100000 nM | COCC(=O)N1CCc2c(sc(NC(=O)CCc3cc(C)ccc3OC)c2C#N)C1 [Example 33, N-[3-Cyano-6-(2-methoxy-ethanoyl)-4,5,6,7-tetrahydro-thieno[2,3-c]pyridin-2-yl]-3-(2-methoxy-5-methyl-phenyl)-propionamide] | 300 to 2000 nM
> 100000 nM | CCCC(=O)N1CCc2c(sc(NC(=O)CCc3cc(C)ccc3OC)c2C#N)C1 [Example 35, N-(6-Butyryl-3-cyano-4,5,6,7-tetrahydro-thieno[2,3-c]pyridin-2-yl)-3-(2-methoxy-5-methyl-phenyl)-propionamide] | ≤ 300 nM
> 100000 nM | COc1ccc(OC)c(CCC(=O)Nc2sc3c(c2C#N)CCN(C(=O)Cc2cccnc2)C3)c1 [Example 36, N-[3-Cyano-6-(2-pyridin-3-yl-ethanoyl)-4,5,6,7-tetrahydro-thieno[2,3-c]pyridin-2-yl]-3-(2,5-dimethoxy-phenyl)-propionamide] | 300 to 2000 nM
> 100000 nM | COc1ccc(C)cc1CCC(=O)Nc1sc2c(c1C#N)CCN(C(=O)Cc1cccnc1)C2 [Example 37, N-[3-Cyano-6-(2-pyridin-3-yl-ethanoyl)-4,5,6,7-tetrahydro-thieno[2,3-c]pyridin-2-yl]-3-(2-methoxy-5-methyl-phenyl)-propionamide] | ≤ 300 nM
≥ 40000 nM | COc1ccc(C)cc1CCC(=O)Nc1sc2c(c1C#N)CCN(C(=O)CCc1cnccc1OC)C2 [Example 41, N-{3-Cyano-6-[3-(4-methoxy-pyridin-3-yl)-propanoyl]-4,5,6,7-tetrahydro-thieno[2,3-c]pyridin-2-yl}-3-(2-methoxy-5-methyl-phenyl)-propionamide] | 300 to 2000 nM
≥ 40000 nM | COc1cccc(CCC(=O)Nc2sc3c(c2C#N)CCN(C(=O)Cn2ccnc2)C3)c1 [Example 55, N-[3-Cyano-6-(2-imidazol-1-yl-ethanoyl)-4,5,6,7-tetrahydro-thieno[2,3-c]pyridin-2-yl]-3-(3-methoxy-phenyl)-propionamide] | 300 to 2000 nM
≥ 40000 nM | COc1ccccc1CCC(=O)Nc1sc2c(c1C#N)CCN(C(=O)Cc1ccccn1)C2 [Example 59, N-[3-Cyano-6-(2-pyridin-2-yl-ethanoyl)-4,5,6,7-tetrahydro-thieno[2,3-c]pyridin-2-yl]-3-(2-methoxy-phenyl)-propionamide] | ≤ 300 nM
> 100000 nM | COc1cccc(CCC(=O)Nc2sc3c(c2C#N)CCN(C(=O)Cc2ccncc2)C3)c1 [Example 72, N-[3-Cyano-6-(2-pyridin-4-yl-ethanoyl)-4,5,6,7-tetrahydro-thieno[2,3-c]pyridin-2-yl]-3-(3-methoxy-phenyl)-propionamide] | ≤ 300 nM
≥ 40000 nM | CCOc1ccccc1CCC(=O)Nc1sc2c(c1C#N)CCN(C(=O)Cc1ccncc1)C2 [Example 73, N-[3-Cyano-6-(2-pyridin-4-yl-ethanoyl)-4,5,6,7-tetrahydro-thieno[2,3-c]pyridin-2-yl]-3-(2-ethoxy-phenyl)-propionamide] | ≤ 300 nM
≥ 40000 nM | COc1ccccc1CCC(=O)Nc1sc2c(c1C#N)CCN(C(=O)Cn1ccnc1)C2 [Example 84, N-[3-Cyano-6-(2-imidazol-1-yl-ethanoyl)-4,5,6,7-tetrahydro-thieno[2,3-c]pyridin-2-yl]-3-(2-methoxy-phenyl)-propionamide] | ≤ 300 nM
≥ 40000 nM | COc1ccc(C)cc1CCC(=O)Nc1sc2c(c1C#N)CCN(C(=O)Cn1ccnc1)C2 [Example 86, N-[3-Cyano-6-(2-imidazol-1-yl-ethanoyl)-4,5,6,7-tetrahydro-thieno[2,3-c]pyridin-2-yl]-3-(2-methoxy-5-methyl-phenyl)-propionamide] | 300 to 2000 nM
> 100000 nM | CCCC(=O)N1CCc2c(sc(NC(=O)CCc3ccccc3OC)c2C#N)C1 [Example 91, N-(6-Butyryl-3-cyano-4,5,6,7-tetrahydro-thieno[2,3-c]pyridin-2-yl)-3-(2-methoxy-phenyl)-propionamide] | ≤ 300 nM
> 100000 nM | COc1ccccc1CCC(=O)Nc1sc2c(c1C#N)CCN(C(=O)CCc1ccccn1)C2 [Example 95, N-[3-Cyano-6-(3-pyridin-2-yl-propanoyl)-4,5,6,7-tetrahydro-thieno[2,3-c]pyridin-2-yl]-3-(2-methoxy-phenyl)-propionamide] | ≤ 300 nM
≥ 40000 nM | COc1ccccc1CCC(=O)Nc1sc2c(c1C#N)CCN(C(=O)CCn1ccnc1)C2 [Example 101, N-[3-Cyano-6-(3-imidazol-1-yl-propanoyl)-4,5,6,7-tetrahydro-thieno[2,3-c]pyridin-2-yl]-3-(2-methoxy-phenyl)-propionamide] | ≤ 300 nM
≥ 10000 nM | COc1ccccc1CCC(=O)Nc1sc2c(c1C#N)CCN(C(=O)CCn1ccnc1C)C2 [Example 108, N-{3Cyano-6-[3-(2-methyl-imidazol-1-yl)-propanoyl]-4,5,6,7-tetrahydro-thieno[2,3-c]pyridin-2-yl}-3-(2-methoxy-phenyl)-propionamide] | 300 to 2000 nM
≥ 10000 nM | CCOc1ccccc1CCC(=O)Nc1sc2c(c1C#N)CCN(C(=O)CCn1ccnc1C)C2 [Example 109, N-{3-Cyano-6-[3-(2-methyl-imidazol-1-yl)-propanoyl]-4,5,6,7-tetrahydro-thieno[2,3-c]pyridin-2-yl}-3-(2-ethoxy-phenyl)-propionamide] | ≤ 300 nM
≥ 10000 nM | COc1ccc(C)cc1CCC(=O)Nc1sc2c(c1C#N)CCN(C(=O)CCn1ccnc1C)C2 [Example 110, N-{3-Cyano-6-[3-(2-methyl-imidazol-1-yl)-propanoyl]-4,5,6,7-tetrahydro-thieno[2,3-c]pyridin-2-yl}-3-(2-methoxy-5-methyl-phenyl)-propionamide] | 300 to 2000 nM
